Target: T1, SYK (Homo sapiens, UniProt P43405)
T1 construct: 2.5 nM SYK, 400 nM Biotin-Aha-Aha-KEDPDYEWPSAKK and 10 μM ATP
Assay: SYK Flash Plate Assay (enzyme assay)
Type: biochemical
Description: The kinase assay is performed either as 384-well Flashplate assay (for e.g. Topcount measurement) or as 384-well Image-Flashplate assay (for LEADseeker measurement).
2.5 nM SYK, 400 nM Biotin-Aha-Aha-KEDPDYEWPSAKK and 10 μM ATP (spiked with 0.3 μCi 33P-ATP/well) are incubated in a total volume of 50 μl (60 mM Hepes, 10 mM MgCl2, 1.2 mM Dithiothreitol, 0.02% Brij35, 0.1% BSA, pH 7.5) with or without test compound for 1 hours at 30° C. The reaction is stopped with 25 μl 200 mM EDTA. After 30 Min at 30° C. the liquid is removed and each well washed thrice with 100 μl 0.9% sodium chloride solution. Non-specific reaction is determined in presence of 0.1 μM Staurosporine. Radioactivity is measured with Topcount (when using Flashplates) or with LEADseeker (when using Image-Flashplates) respectively. Results (e.g. IC50-values) are calculated with program tools provided by the IT-department (e.g. Symyx Assay Explorer, Genedata Screener).

## COc1cc(-c2cc3nccc(-c4c(OC)cncc4OC)c3o2)cc(OC)c1OC [Compound A103, 7-(3,5-dimethoxy-pyridin-4-yl)-2-(3,4,5-trimethoxy-phenyl)-furo[3,2-b]pyridine]
  IC50: < 0.1 µM

## COc1ccc(-c2ncon2)cc1-c1cc2nccc(-c3c(OC)cccc3OC)c2o1 [Compound A85, 7-(2,6-dimethoxy-phenyl)-2-(2-methoxy-5-[1,2,4]oxadiazol-3-yl-phenyl)furo[3,2-b]pyridine]
  IC50: < 0.1 µM

## COc1cc(-c2cc3nccc(-c4cccc(C(=O)N[C@@H]5CCCC[C@H]5O)c4)c3o2)cc(OC)c1OC [Compound A19, N-((1R,2R)-2-hydroxy-cyclohexyl)-3-[2-(3,4,5-trimethoxy-phenyl)-furo[3,2-b]pyridin-7-yl]-benzamide]
  IC50: 3 to 50 µM

## COc1ccc(C(N)=O)cc1-c1cc2nccc(-c3cnc[nH]3)c2o1 [Compound A93, 3-[7-(3H-imidazol-4-yl)-furo[3,2-b]pyridin-2-yl]-4-methoxy-benzamide]
  IC50: 0.1 to 0.3 µM

## COc1cc(-c2cc3nccc(-c4cccc(C(=O)NC[C@H](O)[C@@H](O)[C@H](O)[C@H](O)CO)c4)c3o2)cc(OC)c1OC [Compound A28, N-((2S,3R,4R,5R)-2,3,4,5,6-pentahydroxy-hexyl)-3-[2-(3,4,5-trimethoxyphenyl)-furo[3,2-b]pyridin-7-yl]-benzamide]
  IC50: 3 to 50 µM

## COc1cc(-c2cc3nccc(-c4cccc(C(=O)NCC(N)C5CC5)c4)c3o2)cc(OC)c1OC (stereo not drawn) [Compound A23, N-(2-amino-2-cyclopropyl-ethyl)-3-[2-(3,4,5-trimethoxy-phenyl)-furo[3,2-b]pyridin-7-yl]-benzamide]
  IC50: 0.3 to 3 µM

## COc1ccc(C(N)=O)cc1-c1cc2nccc(-c3cc4[nH]cnc4cc3OC)c2o1 [Compound A89, 4-Methoxy-3-[7-(6-methoxy-3H-benzoimidazol-5-yl)-furo[3,2-b]pyridin-2-yl]-benzamide]
  IC50: 0.3 to 3 µM

## COc1cc(-c2cc3nccc(-c4ccc5c(c4)[nH]c(=O)n5CCN)c3o2)cc(OC)c1OC [Compound A37, 1-(2-amino-ethyl)-5-[2-(3,4,5-trimethoxy-phenyl)-furo[3,2-b]pyridin-7-yl]-1,3-dihydro-benzoimidazol-2-one]
  IC50: 0.3 to 3 µM

## COc1cc(-c2cc3nccc(-c4cccc(C(=O)N[C@H]5C[C@H](N)C5)c4)c3o2)cc(OC)c1OC [Compound A24, N-(3-amino-cyclobutyl)-3-[2-(3,4,5-trimethoxy-phenyl)-furo[3,2-b]pyridin-7-yl]-benzamide]
  IC50: 0.3 to 3 µM

## COc1cc(-c2cc3nccc(N4CCNCC4)c3o2)cc(OC)c1OC [Compound A53, 7-piperazin-1-yl-2-(3,4,5-trimethoxy-phenyl)-furo[3,2-b]pyridine]
  IC50: 3 to 50 µM

## COc1ccc(-c2nnn[nH]2)cc1-c1cc2nccc(-c3c(OC)cccc3OC)c2o1 [Compound A84, 7-(2,6-dimethoxy-phenyl)-2-[2-methoxy-5-(1H-tetrazol-5-yl)-phenyl]-furo[3,2-b]pyridine]
  IC50: < 0.1 µM

## COc1cc(-c2cc3nccc(-c4cccc(C(=O)N[C@@H]5COC[C@@H]5N)c4)c3o2)cc(OC)c1OC [Compound A67, N-((3S,4R)-4-amino-tetrahydro-furan-3-yl)-3-[2-(3,4,5-trimethoxy-phenyl)furo[3,2-b]pyridin-7-yl]-benzamide]
  IC50: 3 to 50 µM

## COc1cc(-c2cc3nccc(-c4nnc(CCN)o4)c3o2)cc(OC)c1OC [Compound A102, 2-{5-[2-(3,4,5-trimethoxy-phenyl)-furo[3,2-b]pyridin-7-yl]-[1,3,4]oxadiazol-2-yl}-ethylamine]
  IC50: 3 to 50 µM

## COc1cc(-c2cc3nccc(-c4cc(F)cc(C(=O)NCCN)c4)c3o2)cc(OC)c1OC [Compound A55, N-(2-amino-ethyl)-3-fluoro-5-[2-(3,4,5-trimethoxy-phenyl)-furo[3,2-b]pyridin-7-yl]-benzamide]
  IC50: 0.1 to 0.3 µM

## COc1cc(-c2cc3nccc(-c4ccc5ncn(CCN)c5c4)c3o2)cc(OC)c1OC [Compound A8, 2-{6-[2-(3,4,5-trimethoxy-phenyl)-furo[3,2-b]pyridin-7-yl]-benzoimidazol-1-yl}-ethylamine]
  IC50: 0.3 to 3 µM
